From patent US20230052528A1 (priority 2019, published 2023)
Where two headings read alike, the source gives them in different places.

What was measured:
[1] = target: T1, Taspase1 (Homo sapiens, UniProt Q9H6P5); assay: biochemical
T1 sequence (Q9H6P5 1-233): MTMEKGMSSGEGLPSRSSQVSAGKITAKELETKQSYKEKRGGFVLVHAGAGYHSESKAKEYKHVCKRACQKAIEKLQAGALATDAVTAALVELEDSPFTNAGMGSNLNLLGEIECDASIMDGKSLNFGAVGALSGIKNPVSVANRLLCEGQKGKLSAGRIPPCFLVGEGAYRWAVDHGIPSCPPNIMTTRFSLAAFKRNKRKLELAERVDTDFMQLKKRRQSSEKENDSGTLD
T1 sequence (Q9H6P5 234-420): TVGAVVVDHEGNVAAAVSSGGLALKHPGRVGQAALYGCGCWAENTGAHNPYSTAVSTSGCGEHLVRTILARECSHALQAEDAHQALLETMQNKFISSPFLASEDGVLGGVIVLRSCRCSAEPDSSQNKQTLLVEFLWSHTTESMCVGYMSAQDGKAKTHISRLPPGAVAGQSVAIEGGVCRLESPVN
Method: (§1) FIGS. 4A-4B. […] “Taspase1 IC50 (FAM)”=inhibition of cleavage of a Taspase1 peptide substrate; detected by fluorescence resonance energy transfer (FRET). “6.6 mM GSH added”=same assay, in the presence of 6.6 mM glutathione (GSH). […] “Ki”=Ki determined by kinact/Ki measurements, using the Taspase1/FRET-peptide assay described above.
Ki is the binding constant that describes the energy of association for the non-covalent portion of the molecule. Kinact is the rate at which the covalent bond is formed between the small molecule and the protein.

[2] = target: T2, wildtype Taspase1 (split Tasp1 WT) (Homo sapiens, UniProt Q9H6P5); assay: biochemical
T2 sequence (Q9H6P5 1-233): T1 sequence (Q9H6P5 1-233)
T2 sequence (Q9H6P5 234-420): T1 sequence (Q9H6P5 234-420)
Method: as §1
To extend that assay, compounds are also tested in the presence of 6.6 mM GSH as a non-specific, but physiologically relevant, thiol competitor.

[3] = test system: H522 lung cancer cells; assay: Cell viability, H522; type: cell-based; conditions: Homo sapiens
[4] = test system: HSAEC 1-KT cells; assay: Cell viability, HSAEC 1-KT; type: cell-based; conditions: read-out: IC50 (μM) HSAEC 1-KT (Lung)
[5] = test system: PC3 prostate cells; assay: Cell viability, PC3; type: cell-based; conditions: read-out: IC50 (μM) PC3 (Prostate)
[6] = test system: PC9, H1975, H522, HSAEC 1-KT, MDA-MB-231 and PC3 cell lines; assay: Cell viability, statements over all cell lines studied; type: cell-based; conditions: for EC50: read-out: EC50
[7] = test system: H1975 lung cancer cells; assay: Cell viability, H1975; type: cell-based; conditions: Homo sapiens
[8] = test system: MDA-MB-231 triple-negative breast cancer cells; assay: Cell viability, MDA-MB-231; type: cell-based; conditions: Homo sapiens
[9] = test system: PC9 lung cancer cells; assay: Cell viability (CellTiter-Glo), PC9; type: cell-based
[10] = target: T3, split Tasp1 WT (Homo sapiens, UniProt Q9H6P5); assay: LC-MS tethering dose-response (DR50) assay; type: binding; conditions: relative to the other shouldered piperazine analogs
T3 construct: residues 1-233 (alpha domain) in Multiple Cloning Site-1 (MCS-1); residues 234-420 (beta domain) in MCS-2; His6 (TEV-cleavable) (N, cleaved yes); made in house; host or cells: E. coli Rosetta2(DE3)
T3 sequence (Q9H6P5 1-233): T1 sequence (Q9H6P5 1-233)
T3 sequence (Q9H6P5 234-420): T1 sequence (Q9H6P5 234-420)

[11] = Stability of shouldered triazole compound (method not described)
[12] = read-out: kinact (s^−1), Table 1
[13] = read-out: kinact (s^−1), Table 1a
[14] = Biochemical IC50 (nM) +6.6 mM GSH, Table 1, +6.6 mM GSH, 3FAM/QXL520 fluorescent dyes
[15] = Biochemical IC50 (nM) no GSH, Table 1, no GSH, 3FAM/QXL520 fluorescent dyes
[16] = WT IC50 (nM) 6.6 mM GSH, Table 1a, 6.6 mM GSH, average ± std dev
[17] = WT IC50 (nM) No GSH, Table 1a, no GSH, average ± std dev
[18] = NCI-H522, Table 2a cytotoxicity, read-out: IC50 (μM) H522 (Lung)
[19] = NCI-H1975, read-out: IC50 (μM) H1975 (Lung), Table 2a cytotoxicity
[20] = MDA-MB-231, Table 2a cytotoxicity, read-out: IC50 (μM) MDA-MB-231 (Breast)
[21] = Table 2a cytotoxicity, read-out: IC50 (μM) PC9 (Lung)
[22] = NCI-H1975, read-out: H1975 [Lung] (uM), Table 2
[23] = MDA-MB-231, Table 2, read-out: MDA-MB-231 [Breast]

## C=CS(=O)(=O)N1CCN(Cc2ccc(OC(F)(F)F)c(F)c2)[C@@H](CCO)C1 [SMDC069, 2-[(2S)-4-(ethenesulfonyl)-1-{[3-fluoro-4-(trifluoromethoxy)phenyl]methyl}piperazin-2-yl]ethan-1-ol]
[1]; Ki (uM), Table 1
  Ki: 23.2 µM
[1]; Ki (μM), Table 1a
  Ki: 33 µM
[1]; [12]
  kinact: 0.082 s⁻¹
[1]; [13]
  kinact: 0.112 s⁻¹
[2]; [14]
  IC50: 273 nM
[2]; [15]
  IC50: 17 nM
[2]; IC50 vs split Tasp1 WT
  IC50: ~20 nM
[2]; [16]
  IC50: 273 ± 68 nM
[2]; [17]
  IC50: 25 ± 16 nM
[3]; [18]
  IC50: 2 µM
[4]; Table 2a cytotoxicity
  IC50: 3.2 µM
[5]; Table 2a cytotoxicity
  IC50: 3.4 µM
[6]
  EC50: 2 to 6 µM
[7]; [19]
  IC50: 3.6 ± 2.2 µM
[8]; [20]
  IC50: 6 ± 4.1 µM
[9]; 72 h, FIG. 3B, read-out: IC50, reduced viability of EGFR mutant PC9 lung cancer cells
  IC50: ~2 µM
[9]; [21]
  IC50: 3.9 ± 2.6 µM

## C=CS(=O)(=O)N1CCN(Cc2ccc(OC(F)(F)F)c(F)c2)[C@@H](COCc2cn[nH]c2)C1 [SMDC203, (R)-2-(((1H-pyrazol-4-yl)methoxy)methyl)-1-(3-fluoro-4-(trifluoromethoxy)benzyl)-4-(vinylsulfonyl)piperazine]
[1]; Ki (uM), Table 1
  Ki: 27.7 µM
[1]; Ki (μM), Table 1a
  Ki: 45 µM
[1]; [12]
  kinact: 0.048 s⁻¹
[1]; [13]
  kinact: 0.061 s⁻¹
[2]; [14]
  IC50: 237 nM
[2]; [15]
  IC50: 22 nM
[2]; IC50 vs split Tasp1 WT
  IC50: ~20 nM
[2]; [16]
  IC50: 237 ± 40 nM
[2]; [17]
  IC50: 32 ± 18 nM
[5]; Table 2a cytotoxicity
  IC50: 15 µM
[6]
  EC50: 9.6 to 15.5 µM
[7]; [22]
  IC50: 8.1 µM
[7]; [19]
  IC50: 9.6 ± 1.5 µM
[8]; [23]
  IC50: ~13 µM
[8]; [20]
  IC50: 15.5 ± 2.5 µM
[9]; Table 2, read-out: PC9 [Lung]
  IC50: 10.5 µM
[9]; [21]
  IC50: 10.3 ± 0.3 µM

## CN(C)CCSSCCCC(=O)NCc1ccc(OC(F)(F)F)cc1 [SMDC208, 4-{[2-(dimethylamino)ethyl]disulfanyl}-N-{[4-(trifluoromethoxy)phenyl]methyl}butanamide]
[2]; IC50 vs split Tasp1 WT
  IC50: 30300 nM

## C=CS(=O)(=O)N1CCN(Cc2ccc(OC(F)(F)F)c(F)c2)[C@@H](CN2CCS(=O)(=O)CC2)C1 [SMDC275, 4-{[(2S)-4-(ethenesulfonyl)-1-{[3-fluoro-4-(trifluoromethoxy)phenyl]methyl}piperazin-2-yl]methyl}-1λ^6-thiomorpholine-1,1-dione]
[2]; [14]
  IC50: 420 nM
[2]; [15]
  IC50: 27 nM
[2]; IC50 vs split Tasp1 WT
  IC50: ~20 nM
[2]; [16]
  IC50: 420 ± 80 nM
[2]; [17]
  IC50: 38 ± 16 nM
[10]
  binding affinity in the tethering assay: enhanced binding affinity
[7]; [22]
  IC50: 2.6 µM
[7]; [19]
  IC50: 2.6 µM
[8]; [23]
  IC50: 4.3 µM
[8]; [20]
  IC50: 4.3 µM
[9]; Table 2, read-out: PC9 [Lung]
  IC50: 3.5 µM
[9]; [21]
  IC50: 3.5 µM

## C=CS(=O)(=O)N1CCN(Cc2ccc(OC(F)(F)F)c(F)c2)[C@@H](COCc2c[nH]nn2)C1 [SMDC556, (R)-2-(((1H-1,2,3-triazol-4-yl)methoxy)methyl)-1-(3-fluoro-4-(trifluoromethoxy)benzyl)-4-(vinylsulfonyl)piperazine]
[11]
  stability: too unstable

## CN(C)CCSSCCCNC(=O)Cc1ccc(OC(F)(F)F)cc1 [SMDC673, N-(3-{[2-(Dimethylamino)ethyl]disulfanyl}propyl)-2-[4-(trifluoromethoxy)phenyl]acetamide]
[2]; IC50 vs split Tasp1 WT
  IC50: 11300 nM

## C=CS(=O)(=O)N1CCN(Cc2ccc(OC(F)(F)F)c(F)c2)CC1 [SMDC689, 1-(Ethenesulfonyl)-4-{[3-fluoro-4-(trifluoromethoxy)phenyl]methyl}piperazine]
[1]; Ki (uM), Table 1
  Ki: 32.9 µM
[1]; Ki (μM), Table 1a
  Ki: 45.8 ± 13.4 µM
[1]; [12]
  kinact: 0.028 s⁻¹
[1]; [13]
  kinact: 0.031 ± 0.003 s⁻¹
[2]; [14]
  IC50: 661 nM
[2]; [15]
  IC50: 51 nM
[2]; IC50 vs split Tasp1 WT
  IC50: 51 nM
[2]; [16]
  IC50: 661 ± 152 nM
[2]; [17]
  IC50: 51 ± 47 nM
[3]; [18]
  IC50: 20 ± 10 µM
[4]; Table 2a cytotoxicity
  IC50: 13 µM
[5]; Table 2a cytotoxicity
  IC50: 15 µM
[7]; [19]
  IC50: 17.6 ± 8.3 µM
[8]; [20]
  IC50: 16.5 ± 1.5 µM
[9]; [21]
  IC50: 11 ± 1 µM

## C=CS(=O)(=O)NCCCc1ccc(OC(F)(F)F)cc1 [SMDC714]
[2]; IC50 vs split Tasp1 WT
  IC50: 16000 nM

## C=CS(=O)(=O)N1CCN(Cc2cccc(OC(F)(F)F)c2)CC1 [SMDC723, 1-(3-(Trifluoromethoxy)benzyl)-4-(vinylsulfonyl)piperazine]
[2]; IC50 vs split Tasp1 WT
  IC50: 40000 nM
[3]; NCI-H522, read-out: IC50 (μM) H522 (Lung)
  IC50: 24.4 ± 1.7 µM
[4]
  IC50: ~32 µM
[5]
  IC50: ~28 µM
[6]; all cell lines studied, read-out: IC50 against cell lines studied
  IC50: > 20 µM
[7]; [22]
  IC50: ~20 µM
[7]; [19]
  IC50: 27.8 ± 5.6 µM
[8]; [23]
  IC50: ~37 µM
[8]; MDA-MB-231, read-out: IC50 (μM) MDA-MB-231 (Breast), Table 2a cytotoxicity
  IC50: 37 µM
[9]; Table 2, read-out: PC9 [Lung]
  IC50: ~22 µM
[9]; read-out: IC50 (μM) PC9 (Lung), Table 2a cytotoxicity
  IC50: 25.8 ± 2.7 µM

## C#CCOC[C@H]1CN(S(=O)(=O)C=C)CCN1Cc1ccc(OC(F)(F)F)c(F)c1 [SMDC883, (2R)-4-(ethenesulfonyl)-1-{[3-fluoro-4-(trifluoromethoxy)phenyl]methyl}-2-[(prop-2-yn-1-yloxy)methyl]piperazine]
[1]; Ki (uM), Table 1
  Ki: 64.3 µM
[1]; Ki (μM), Table 1a
  Ki: 87 µM
[1]; [12]
  kinact: 0.037 s⁻¹
[1]; [13]
  kinact: 0.045 s⁻¹
[2]; [14]
  IC50: 340 nM
[2]; [15]
  IC50: 26 nM
[2]; IC50 vs split Tasp1 WT
  IC50: ~20 nM
[2]; [16]
  IC50: 340 ± 30 nM
[2]; [17]
  IC50: 26 ± 8 nM

## C=CS(=O)(=O)N1CCN(Cc2ccc(OC(F)(F)F)cc2)CC1 [SMDC967, 1-(ethenesulfonyl)-4-{[4-(trifluoromethoxy)phenyl]methyl}piperazine]
[1]; Ki (uM), Table 1
  Ki: 6.02 µM
[1]; Ki (μM), Table 1a
  Ki: 30 µM
[1]; [12]
  kinact: 0.011 s⁻¹
[1]; [13]
  kinact: 0.004 s⁻¹
[2]; [15]
  IC50: 168 nM
[2]; IC50 vs split Tasp1 WT
  IC50: 114 nM
[2]; [17]
  IC50: 168 ± 54 nM
